From PMC12013366, “In vitro evaluation of the immunogenic potential of gramicidin S and its photocontrolled analogues” (RSC Medicinal Chemistry, 2025)
Non-standard residues stand in square brackets, D forms with d. Residues, ends and D or L forms follow the SMILES beside them. Orn = NCCC[C@H](N)C(=O)O

Key:
HeLa spheroids = assay: Cytotoxicity, three-dimensional (spheroid) assay; assay type: cell-based; conditions: human
From the text: (§1) For the experiments with the three-dimensional (3D) cultures, we used a 384-well plate format and applied the protocol introduced by Sirenko et al.,[35] with a few modifications. First, we used the ultra-low adhesion plates to ensure reproducible spheroid formation. Second, we decided to co-stain the cells with calcein-AM to obtain more information on the processes occurring in spheroids upon the addition of cytolytic peptides. Calcein-AM stains metabolically active cells and helps to identify the fraction of necrotic cells that is essential for the accurate determination of the IC50 values (Fig. 3). Three time points of incubation of spheroids with the peptides (10 min, 24 h and 72 h) were chosen for the experiments. The IC50 values and the closed/open isomer activity ratios (Table 2) were calculated, as in the monolayer cell culture experiments.
(§2) Essential experimental details have been previously published by us.[79]
(§3) The cells were maintained identically to a 2D cell culture protocol. After counting, the cells were seeded in 50 μL of medium in an ultralow attachment U-bottom black-wall 384-well plate (3830, Corning). The seeding density was chosen to obtain spheroids after 48 h of incubation that are compact enough to fit into 20× objective field of view (<800–1000 μm in diameter) after incubation with compounds. We seeded 2000 cells per well for 4T1 and 1000 cells per well for HEK-293, HeLa, HepG2, LLC and MDA-MB-231. After seeding, the plate was centrifuged at 40 g for 30 s and additionally shaken at 250 rpm for 1 min to shake all the cells off the walls of a well. After 48 h, the compounds were dispensed in 20 μL of medium (500, 100, 50, 5 and 1 μM for closed peptide photoforms; 100, 50, 10, 1 and 0.5 μM for open photoforms and GS). At 10 min, 24 h and 72 h post addition of compounds, the staining solution consisting of 112.5 μM of Hoechst 33342, 4.5 μM of calcein-AM (C1430, Thermo Fisher), 13.5 μM of propidium iodide and 10% of FBS in DPBS was added in 20 μL for 2 h. The fluorescent imaging was conducted in the confocal mode with a 20× objective lens and z-stack of 12–15 images with a 10 μm step. The collected data were processed using INCarta 1.13 and analyzed using GraphPad Prism 10.

[1] = Cytotoxicity, three-dimensional (spheroid) assay; assay type: cell-based; conditions: human, HEK-293 spheroids, calcein-AM/PI/Hoechst 33342 confocal imaging, Table S3 (with LMB033), ± SEM, n=5, read-out: IC50, cytotoxic activity, three-dimensional (spheroid) assay
From the text: as §1, §2, §3

[2] = tested on: calreticulin (CALR) on 4T1 cells; assay: CALR exposure on the cell surface, fluorescence microscopy; assay type: cell-based, murine; conditions: 4T1 monolayer; 8 and 16 μM; 24 h; Alexa Fluor 647 anti-CALR antibody, normalized to non-treated cells; n=2
Procedure: We performed fluorescence microscopy using an Alexa Fluor 647 anti-CALR antibody for quantifying the CALR exposure on the surface of cells. Confluent monolayer 4T1, HeLa, HepG2 and MDA-MB-231 cell cultures were incubated with GS and GS-derived peptides for 24 h followed by fixation, staining with the antibody and microscopic observation. Using the images, we calculated the total levels of the fluorescence signal per cell in each sample. […] To examine the time dependence of the CALR exposure, cytofluorimetric experiments were conducted on the MDA-MB-231 cell line (Fig. 9) using an Alexa Fluor 647 anti-CALR antibody. In this experiment, 30 min, 3 h, 6 h and 24 h were the time points for monitoring the fraction of cells expressing CALR on their surface.
The cells were seeded (10 000 cells per well for 4T1; 20 000 cells per well for HeLa and MDA-MB-231; 30 000 cells per well for HepG2) in 200 μL of appropriate medium in a 96-well black-wall transparent-bottom plate (6055302, Revvity). After 24 h incubation, the medium was aspired and 100 μL of fresh medium was added. The compounds (64, 32, 16 and 8 μM for closed photoforms; 32, 16, 8 and 4 μM for open photoforms and GS) along with the negative (1% DMSO) control were prepared in DMEM and dispensed in 100 μL per well for 24 h. Then 50 μL of 20% paraformaldehyde (28908, Thermo Fisher) was added for 15 min for fixation. […]

For `CC(C)C[C@@H]1NC(=O)[C@H](CCCN)NC(=O)[C@H](C(C)C)NC(=O)[C@@H]2CCCN2C(=O)[C@@H](Cc2ccccc2)NC(=O)[C@H](CC(C)C)NC(=O)[C@H](CCCN)NC(=O)[C@H](C(C)C)NC(=O)[C@@H]2CCCN2C(=O)[C@@H](Cc2ccccc2)NC1=O` [Gramicidin S, gramicidin S] (cyclo(V[Orn]L[dF]PV[Orn]L[dF]P)), the IC50 (HeLa spheroids; 10 min) was 2.9 ± 1.5 µM, the IC50 (HeLa spheroids; 24 h) was 2.9 ± 1.6 µM and the IC50 at 10 min ([1]; 10 mins incubation) was 14.3 ± 11.6 µM. The IC50 at 24 h ([1]; 24 hrs incubation) was 12.9 ± 1.1 µM, the IC50 at 72 h ([1]; 72 hrs incubation) was 9 ± 1.1 µM and the “increase of CALR exposure” value [2] was 3 fold.
